Measured values from US9012655B2, “Antimicrobial/adjuvant compounds and methods” (Denouamed, Inc., priority 2011, dated 2015).

Key:
[1] = test system: E. coli D22; assay: MIC, NCCLS M7-A6 broth microdilution, E. coli D22; assay type: cell-based; settings: 35 degrees Celsius; for MIC: Escherichia coli, D22, 16 to 20 h
Summary of the method: (§1)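 Broth microdilution per NCCLS M7-A6 in cation-adjusted Mueller-Hinton broth, doubling dilutions, inoculum 5×10^5 CFU/mL, DMSO controls included. Read after 16–20 h at 35 °C in ambient air; MIC is lowest concentration preventing visible growth.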

[2] = test system: Staphylococcus aureus NRS383; assay: MIC panel of challenge pathogens (CLSI); assay type: cell-based; settings: Staphylococcus aureus NRS383; for MIC: read-out: 100% inhibition; for MIC50: read-out: MIC50 (50%); for MIC80: read-out: MIC80 (80%)
Experimental: (§2) The inocula for each bacterial strain were prepared by picking 5-10 distinct colonies from the culture plates and suspending them in the appropriate broth as per Clinical and Laboratory Standards Institute (CLSI) guidelines M07-A8, M24-A or M11-A7 as appropriate. The inoculum was resuspended by vigorous shaking on a vortex mixer for 15 s. The turbidity was then adjusted to McFarland standard 0.5 ([…]). The inoculum was further diluted in the appropriate media for MIC tests to give a final inoculum in each well of 2-8×10^5 CFU/ml. MICs were tested in the appropriate broth in accordance with the appropriate CLSI guidelines.
(§3) A stock solution of each compound was prepared at a concentration of 1.28 g/L in DMSO. The stock was further diluted in the appropriate media to give a top starting concentration of 128 mg/L in the assay. 100 μL of the appropriate media, as per CLSI guidelines, was dispensed into each well in columns 2-12. 200 μL of the each compound solution (at 256 mg/L) was dispensed into each well in column 1. 100 μL aliquots were pipetted from column 1 wells and dispensed into column 2 with a multichannel pipette (±2% coefficient of variation) thus diluting two-fold. 100 μL samples were then pipetted from column 2 wells and dispensed into column 3. The process was repeated through to column 10. The final 100 μL of diluted drug from column 10 was then discarded. Row 11 acted as a positive control (no compound, but organisms added), Row 12 acted as a negative control (no compound, and no organisms added).
(§4) 100 μL of the appropriate inoculum suspension in the appropriate media, as per CLSI guidelines, was added to the appropriate wells. […] All plates were incubated in the dark under aerobic or anaerobic conditions at 30-37° C. for 24-48 hours, according to the appropriate CLSI guideline. Plates were read visually 24-48 hours post inoculation. Endpoints of 100% inhibition were determined (CLSI interpretation endpoints following visual examination).
(§5) MIC50, MIC80, and 100% inhibition results are reported below in μg/mL in the following Tables, indicating each compound tested against a given species and strain: […]

[3] = test system: Staphylococcus aureus EUP MRSA002; assay: MIC panel of challenge pathogens (CLSI); assay type: cell-based; settings: Staphylococcus aureus EUP MRSA002; for MIC / MIC50 / MIC80: EUPMRSA002; for MIC: read-out: 100% inhibition; for MIC50: read-out: MIC50 (50%); for MIC80: read-out: MIC80 (80%)
Experimental: as §2, §3, §4, §5

[4] = test system: Staphylococcus aureus AUR131 007035; assay: MIC panel of challenge pathogens (CLSI); assay type: cell-based; settings: Staphylococcus aureus AUR131 007035; for MIC / MIC50 / MIC80: AUR131007035; for MIC: read-out: 100% inhibition; for MIC50: read-out: MIC50 (50%); for MIC80: read-out: MIC80 (80%)
Experimental: as §2, §3, §4, §5

[5] = test system: Staphylococcus aureus NRS1 (ATCC700699); assay: MIC panel of challenge pathogens (CLSI); assay type: cell-based; settings: Staphylococcus aureus NRS1 (ATCC700699); for MIC: read-out: 100% inhibition; for MIC50: read-out: MIC50 (50%); for MIC80: read-out: MIC80 (80%)
Experimental: as §2, §3, §4, §5

[6] = test system: Staphylococcus epidermidis NRS7; assay: MIC panel of challenge pathogens (CLSI); assay type: cell-based; settings: Staphylococcus epidermidis NRS7; for MIC: read-out: 100% inhibition; for MIC50: read-out: MIC50 (50%); for MIC80: read-out: MIC80 (80%)
Experimental: as §2, §3, §4, §5

[7] = test system: Staphylococcus aureus AUR60 7005; assay: MIC panel of challenge pathogens (CLSI); assay type: cell-based; settings: Staphylococcus aureus AUR60 7005; for MIC / MIC50 / MIC80: AUR607005; for MIC: read-out: 100% inhibition; for MIC50: read-out: MIC50 (50%); for MIC80: read-out: MIC80 (80%)
Experimental: as §2, §3, §4, §5

[8] = test system: Enterococcus faecium ATCC700221; assay: MIC panel of challenge pathogens (CLSI); assay type: cell-based; settings: Enterococcus faecium ATCC700221; for MIC: read-out: 100% inhibition; for MIC50: read-out: MIC50 (50%); for MIC80: read-out: MIC80 (80%)
Experimental: as §2, §3, §4, §5

[9] = test system: Enterococcus faecalis ATCC29212; assay: MIC panel of challenge pathogens (CLSI); assay type: cell-based; settings: Enterococcus faecalis ATCC29212; for MIC: read-out: 100% inhibition; for MIC50: read-out: MIC50 (50%); for MIC80: read-out: MIC80 (80%)
Experimental: as §2, §3, §4, §5

[10] = molecular target: AcpS enzyme (Escherichia coli, UniProt P24224); assay: Measurement of AcpS inhibition ([3H]acetyl-CoA incorporation into apo-ACP); assay type: biochemical; settings: % activity vs blank-subtracted counts
Chain of AcpS enzyme (P24224 whole entry): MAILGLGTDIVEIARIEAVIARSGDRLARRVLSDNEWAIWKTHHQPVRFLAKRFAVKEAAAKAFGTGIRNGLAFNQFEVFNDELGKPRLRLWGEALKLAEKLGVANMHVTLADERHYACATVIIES
Summary of the method: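 Acetyl transfer from [3H]acetyl-CoA (labelled stock mixed with unlabelled acetyl-CoA) onto apo-ACP by E. coli AcpS at RT, started with substrate; aliquots TCA-precipitated at time points up to 60 min. Pellet radioactivity by scintillation; results as % activity of blank-subtracted substrate counts.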

[11] = test system: Methicillin-Resistant Staph. aureus (MRSA); assay: MIC, NCCLS M7-A6 broth microdilution, MRSA; assay type: cell-based; settings: 16 to 20 h, 35 degrees Celsius; for MIC: Staphylococcus aureus, MRSA
Summary of the method: as §1

Cc1cc(Cl)ccc1-c1cc(-c2nnn[nH]2)sc1-c1ccc(Cl)cc1C [DNM0488, 5-(4,5-Bis(4-chloro-2-methylphenyl)thiophen-2-yl)-1H-tetrazole]
0.5 µg/mL: MIC [2] | MIC50 [2] | MIC80 [2] | MIC50 [3] | MIC [4] | MIC50 [4] | MIC80 [4] | MIC [6] | MIC [7] | MIC50 [7] | MIC80 [7] | MIC [8] | MIC [9] | MIC50 [9] | MIC80 [9]
125 µM: MIC [1]
4 µM: MIC [11]
0.25 µg/mL: MIC50 [6] | MIC80 [6] | MIC50 [8] | MIC80 [8]
11.5%: activity at 50 µM ([10]; test compound 50 uM)
0.32%: remaining activity at 500 µM ([10]; test compound 500 uM)
≤ 0.25 µg/mL: MIC [5] | MIC50 [5] | MIC80 [5]
1 µg/mL: MIC [3] | MIC80 [3]

Fc1ccc(-c2cc(-c3nnn[nH]3)sc2-c2ccc(F)c3ccccc23)c2ccccc12 [DNM0537, 5-(4,5-Bis(4-fluoronaphthalen-1-yl)thiophen-2-yl)-1H-tetrazole]
1 µg/mL: MIC [3] | MIC50 [3] | MIC80 [3] | MIC [6] | MIC80 [6] | MIC [9] | MIC80 [9]
0.5 µg/mL: MIC50 [6] | MIC [8] | MIC50 [8] | MIC80 [8] | MIC50 [9]
≤ 0.25 µg/mL: MIC [2] | MIC50 [2] | MIC80 [2] | MIC [4] | MIC50 [4] | MIC80 [4] | MIC [5] | MIC50 [5] | MIC80 [5] | MIC [7] | MIC50 [7] | MIC80 [7]
0.14%: remaining activity at 500 µM ([10]; test compound 500 uM)
1.28%: activity at 50 µM ([10]; test compound 50 uM)
125 µM: MIC [1]
2 µM: MIC [11]

Cc1cc(Cl)ccc1-c1cc(-c2nnn[nH]2)sc1-c1ccc(C)c2ccccc12 [DNM0576, 5-(4-(4-Chloro-2-methylphenyl)-5-(4-methylnaphthalen-1-yl)thiophen-2-yl)-1H-tetrazole]
1 µg/mL: MIC [9] | MIC50 [9] | MIC80 [9]
> 125 µM: MIC [1]
0.5 µg/mL: MIC [2] | MIC50 [2] | MIC80 [2] | MIC [4] | MIC50 [4] | MIC80 [4] | MIC [5] | MIC80 [5] | MIC [6] | MIC80 [6] | MIC [7] | MIC50 [7] | MIC80 [7] | MIC [8]
≤ 0.25 µg/mL: MIC [3] | MIC50 [3] | MIC80 [3]
0.25 µg/mL: MIC50 [5] | MIC50 [6] | MIC50 [8] | MIC80 [8]
4 µM: MIC [11]
0.15%: remaining activity at 500 µM ([10]; test compound 500 uM)
5.88%: activity at 50 µM ([10]; test compound 50 uM)

Cc1ccc(Cl)cc1-c1cc(-c2nnn[nH]2)sc1-c1cc(Cl)ccc1C [DNM0508, 5-(4,5-Bis(5-chloro-2-methylphenyl)thiophen-2-yl)-1H-tetrazole]
44.9%: activity at 50 µM ([10]; test compound 50 uM)
0.1%: remaining activity at 500 µM ([10]; test compound 500 uM)
1 µg/mL: MIC [2] | MIC50 [2] | MIC80 [2] | MIC [3] | MIC80 [3] | MIC [4] | MIC50 [4] | MIC80 [4] | MIC [5] | MIC80 [5] | MIC [6] | MIC [7] | MIC50 [7] | MIC80 [7] | MIC [8] | MIC50 [8] | MIC80 [8]
0.5 µg/mL: MIC50 [3] | MIC50 [5] | MIC50 [6] | MIC80 [6]
4 µM: MIC [11]
> 125 µM: MIC [1]
2 µg/mL: MIC [9] | MIC50 [9] | MIC80 [9]

Clc1ccc(-c2cc(-c3nnn[nH]3)sc2-c2ccc(Cl)cc2)cc1 [DNM0487, 5-(4,5-Bis(4-chlorophenyl)thiophen-2-yl)-1H-tetrazole]
0.08%: remaining activity at 500 µM ([10]; test compound 500 uM)
0.5 µg/mL: MIC [5] | MIC80 [5] | MIC50 [6]
0.25 µg/mL: MIC50 [5]
1 µg/mL: MIC [2] | MIC50 [2] | MIC80 [2] | MIC50 [3] | MIC [4] | MIC50 [4] | MIC80 [4] | MIC [6] | MIC80 [6] | MIC [7] | MIC50 [7] | MIC80 [7] | MIC [8] | MIC50 [8] | MIC80 [8]
8 µM: MIC [11]
2 µg/mL: MIC [3] | MIC80 [3] | MIC [9] | MIC50 [9] | MIC80 [9]
> 125 µM: MIC [1]
3.34%: activity at 50 µM ([10]; test compound 50 uM)

Cc1ccc(-c2cc(-c3nn[nH]n3)cc(-c3ccccc3-c3ccccc3)c2)c2ccccc12 [DNM0474]
0.25 µg/mL: MIC50 (50%) [5]
0.5 µg/mL: 100% inhibition [2] | MIC50 (50%) [2] | MIC80 (80%) [2] | 100% inhibition [4] | MIC50 (50%) [4] | MIC80 (80%) [4] | 100% inhibition [5] | MIC80 (80%) [5] | MIC50 (50%) [6] | 100% inhibition [7] | MIC50 (50%) [7] | MIC80 (80%) [7]
1 µg/mL: 100% inhibition [3] | MIC50 (50%) [3] | MIC80 (80%) [3] | 100% inhibition [6] | MIC80 (80%) [6] | 100% inhibition [8] | MIC50 (50%) [8] | MIC80 (80%) [8] | 100% inhibition [9] | MIC50 (50%) [9] | MIC80 (80%) [9]
>125 µM: MIC E coli D22 ([1]; 16 to 20 h)
0.3%: % AcpS activity @ 500 uM ([10]; test compound 500 uM)
2 µM: MIC MRSA [11]
15.08%: % AcpS activity at 50 uM ([10]; test compound 50 uM)
